The star is where a group is joined. Palmitoyl = CCCCCCCCCCCCCCCC(=O)*
Legend:
Assay type in all cases: cell-based, human
NGF [1] = assay: NGF secretion by NHDF (ELISA/BioPlex); conditions: 48h
Experimental: (§1) NHDF, HFDPC, HHFK and NHEM cells were treated with the peptides studied for 48h. At the end of the treatment, cell supernatants were collected and stored at −80° C. until analysis. The factors of interest secreted into the supernatant were assayed by ELISA® (R&D) or BioPlex® (BioRad®).
(§2) The results are expressed as percent increase in the concentration of the factor present in the supernatant relative to the untreated control. The intensity of the effect varies as a function of the concentration of the peptide studied and of the cell type treated.

VEGF [2] = assay: VEGF secretion by NHDF (ELISA/BioPlex); conditions: 48h
Experimental: as §1, §2

PDGF [3] = assay: PDGF secretion by HFDPC (ELISA/BioPlex); conditions: 48h
Experimental: as §1, §2

SCF [4] = assay: SCF secretion by NHDF (ELISA/BioPlex); conditions: 48h
Experimental: as §1, §2

HGF [5] = assay: HGF secretion by NHDF (ELISA/BioPlex); conditions: 48h
Experimental: as §1, §2

VEGF [6] = assay: VEGF secretion by HFDPC (ELISA/BioPlex); conditions: 48h
Experimental: as §1, §2

NGF [7] = assay: NGF secretion by HFDPC (ELISA/BioPlex); conditions: 10^−9 M, 48h
Experimental: as §1, §2

[8] = system: genes whose expression is reduced in subjects characterized by alopecia; assay: qPCR (TLDA) overall statement, genes involved in alopecia, HFDPC; conditions: summary of Table 1
Experimental: (§3) To study the effect of 9 peptides on these genes, HFDPC were treated for 24 hours with the molecules tested at 10^−7M and 10^−9M concentrations.
(§4) RNA was extracted and purified from cell pellets using the RNA XS Kit (Macherey-Nagel). RNA quantification was carried out with a NanoDrop device and sample quality was verified on a Bioanalyzer with RNA 6000 Nano chips (Agilent). cDNA was synthesized from 300 ng of RNA using the High-Capacity cDNA Reverse Transcription Kit (LifeTech). Quality-control qPCR assays of the cDNA were carried out in microplates on the reference gene, GAPDH, and the SIRT1 gene.
(§5) Final qPCR experiments were carried out in a 1 μl volume on microfluidic cards (TaqMan Low Density Arrays, LifeTech) and the ABI 7900HT qPCR device. Amplification reactions were performed in duplicate using 1 to 2 ng of cDNA per qPCR reaction and TaqMan Universal Master Mix II (LifeTech).
(§6) Ct values were obtained using the RQ Manager software. For analyses of qPCR results, Ct values were limited to 35 cycles and the duplicate assays are averaged. The GeneXPro software was used for the studies of stability and of selection of the best reference genes. Expression variations are calculated by the relative quantification method and are expressed as percent increase in expression of the gene of interest relative to the untreated controls.

HGF [9] = assay: HGF secretion by HFDPC (ELISA/BioPlex); conditions: 48h
Experimental: as §1, §2

KGF [10] = assay: KGF secretion by HFDPC (ELISA/BioPlex); conditions: 48h
Experimental: as §1, §2

VEGF [11] = assay: qPCR (TLDA) VEGF gene expression in HFDPC; conditions: peptide 10^−5 M (table title), 24 hours, relative to untreated controls
Experimental: as §4, §5, §6

HGF [12] = assay: HGF secretion by HHFK (ELISA/BioPlex); conditions: 10^−7 M, 48h
Experimental: as §1, §2

KGF [13] = assay: qPCR (TLDA) KGF gene expression in HFDPC; set-up: dose or concentration left out as unconfirmed; conditions: peptide, 24 hours, relative to untreated controls
Experimental: as §4, §5, §6

PDGF [14] = assay: qPCR (TLDA) PDGF gene expression in HFDPC; set-up: dose or concentration left out as unconfirmed; conditions: peptide, 24 hours, relative to untreated controls
Experimental: as §4, §5, §6

IGF1 = assay: qPCR (TLDA) IGF1 gene expression in HFDPC; conditions: peptide 10^−9, 24 hours, relative to untreated controls
Experimental: as §3, §4, §5, §6

[15] = system: microdissected hairs from scalp surgery specimens; assay: Growth of isolated hair ex vivo; conditions: ex vivo isolated hair
Experimental: (§7) This study was carried out on microdissected hairs from scalp surgery specimens from women aged 52 to 71 years. Isolated hairs were kept alive for 11 to 12 days in Williams medium, under conventional cell culture conditions (37° C., 5% CO2). […]
(§8) To evaluate the effect of (1), (6) or (9) on hair growth, the hairs were photographed and their lengths measured using image analysis software. Thus, the growth of the hairs between D0 and D11/D12 could be calculated and compared with that of the untreated control. At the end of the treatments (D11 or D12), the hairs were collected and frozen or fixed for immunolabeling and histological staining.

follicular markers = assay: Follicular markers in isolated hair ex vivo (immunolabeling); conditions: end of treatment D11 or D12, value = marker increased
Experimental: as §7, §8

SCF [16] = assay: SCF secretion by HHFK (ELISA/BioPlex); conditions: 10^−7 M, 48h
Experimental: as §1, §2

Substance	NGF secretion, percent increase relative to untreated control (NGF [1]; 10^−9 M)	PDGF secretion, percent increase relative to untreated control (PDGF [3]; 10^−7 M)	SCF secretion, percent increase relative to untreated control (SCF [4]; 10^−7 M)	HGF secretion, percent increase relative to untreated control (HGF [5]; 10^−7 M)	HGF secretion, percent increase relative to untreated control (HGF [5]; 10^−9 M)	stimulation of genes whose expression is reduced in alopecia (in words) [8]	% stimulation VEGF gene expression (VEGF [11])	HGF secretion, percent increase relative to untreated control (HGF [12])	% stimulation KGF gene expression (KGF [13])	% stimulation PDGF gene expression (PDGF [14])	further results
Palm-Ala-Arg-Pro-Ala-Ala-NH2 (Palmitoyl-ARPAA-NH2; SMILES CCCCCCCCCCCCCCCC(=O)N[C@@H](C)C(=O)N[C@@H](CCCNC(=N)N)C(=O)N1CCC[C@H]1C(=O)N[C@@H](C)C(=O)N[C@@H](C)C(N)=O) [(4)]	NGF 18%	PDGF 8%	SCF 6%	HGF 188%	HGF 95%	–	–	–	–	–	NGF secretion, percent increase relative to untreated control (NGF [1]; 10^−7 M): NGF 12%; VEGF secretion, percent increase relative to untreated control (VEGF [2]; 10^−7 M): VEGF 9%; SCF secretion, percent increase relative to untreated control (SCF [4]; 10^−9 M): SCF 8%
Palm-Ala-Arg-Pro-Ala-Lys-NH2 (Palmitoyl-ARPAK-NH2; SMILES CCCCCCCCCCCCCCCC(=O)N[C@@H](C)C(=O)N[C@@H](CCCNC(=N)N)C(=O)N1CCC[C@H]1C(=O)N[C@@H](C)C(=O)N[C@@H](CCCCN)C(N)=O) [(3)]	NGF 89%	–	–	–	HGF 5%	stimulate several genes	83%	–	–	–	VEGF secretion, percent increase relative to untreated control (VEGF [6]; 10^−7 M): VEGF 9%; NGF secretion, percent increase relative to untreated control (NGF [7]): NGF 6%; VEGF secretion, percent increase relative to untreated control (VEGF [2]; 10^−9 M): VEGF 48%; PDGF secretion, percent increase relative to untreated control (PDGF [3]; 10^−9 M): PDGF 39%; HGF secretion, percent increase relative to untreated control (HGF [9]; 10^−9 M): HGF 33%; KGF secretion, percent increase relative to untreated control (KGF [10]; 10^−7 M): KGF 53%; KGF secretion, percent increase relative to untreated control (KGF [10]; 10^−9 M): KGF 45%
Palm-Ala-Arg-Pro-Ala-Lys-OH (Palmitoyl-ARPAK-OH; SMILES CCCCCCCCCCCCCCCC(=O)N[C@@H](C)C(=O)N[C@@H](CCCNC(=N)N)C(=O)N1CCC[C@H]1C(=O)N[C@@H](C)C(=O)N[C@@H](CCCCN)C(=O)O) [(2)]	–	–	SCF 37%	HGF 13%	–	stimulate several genes	11%	HGF 28%	71%	29%	SCF secretion, percent increase relative to untreated control (SCF [4]; 10^−5 M): SCF 24%; % stimulation IGF1 gene expression (IGF1): 136% (10^−9); HGF secretion, percent increase relative to untreated control (HGF [9]; 10^−5 M): HGF 403%; HGF secretion, percent increase relative to untreated control (HGF [9]; 10^−7 M): HGF 565%
Palm-Arg-Pro-Ala-Lys-OH (Palmitoyl-RPAK-OH; SMILES CCCCCCCCCCCCCCCC(=O)N[C@@H](CCCNC(=N)N)C(=O)N1CCC[C@H]1C(=O)N[C@@H](C)C(=O)N[C@@H](CCCCN)C(=O)O) [Peptide (9)]	–	PDGF 117%	SCF 8%	–	–	stimulate several genes	93%	HGF 94%	156%	304%	VEGF secretion, percent increase relative to untreated control (VEGF [6]; 10^−5 M): VEGF 10%; VEGF secretion, percent increase relative to untreated control (VEGF [2]; 10^−5 M): VEGF 24%; PDGF secretion, percent increase relative to untreated control (PDGF [3]; 10^−5 M): PDGF 62%; Growth at D 11/D 12 Vs Control ([15]; 10^−7 M): No effect; Growth at D 11/D 12 Vs Control ([15]; 10^−9 M): +5%; Follicular markers increased Vs Control (follicular markers; 10^−7 M): CK15; Follicular markers increased Vs Control (follicular markers; 10^−9 M): CK15; SCF secretion, percent increase relative to untreated control (SCF [16]): SCF 11%

From patent US10947273B2, “Peptides of use in the preventive and curative treatment of alopecia” (Institut Europeen de Biologie Cellulaire, priority 2015, dated 2021)
